Results: patent US8461328B2, “Tricyclic heterocyclic compounds, compositions and methods of use thereof” (Genentech, Inc., priority 2010, dated 2013)

What was measured:
Assay type in all cases: biochemical
TYK2 = biological target: T1, TYK2 (Homo sapiens, UniProt P29597); test: TYK2 inhibition (Table 4)
T1 construct: made in house; host or cells: SF9 insect cells (baculovirus)
T1 sequence (P29597 873-1187): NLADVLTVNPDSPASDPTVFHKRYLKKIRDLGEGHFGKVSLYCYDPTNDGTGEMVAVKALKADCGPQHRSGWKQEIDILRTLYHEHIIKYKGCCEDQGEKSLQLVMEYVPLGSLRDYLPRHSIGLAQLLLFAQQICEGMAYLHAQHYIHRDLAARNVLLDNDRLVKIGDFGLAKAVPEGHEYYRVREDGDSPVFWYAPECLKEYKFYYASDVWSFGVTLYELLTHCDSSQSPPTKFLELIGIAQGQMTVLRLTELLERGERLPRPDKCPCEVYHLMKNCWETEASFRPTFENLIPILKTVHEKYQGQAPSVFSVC

JAK1 = biological target: T2, JAK1 (Homo sapiens, UniProt P23458); test: JAK1 inhibition (Table 4); settings: read-out: JAK1 Ki
T2 construct: made in house; host or cells: SF9 insect cells (baculovirus)

JAK3 = biological target: T3, JAK3 (Homo sapiens, UniProt P52333); test: JAK3 inhibition (Table 4); settings: read-out: JAK3 Ki
T3 construct: made in house; host or cells: SF9 insect cells (baculovirus)

JAK2 = biological target: T4, JAK2 (Homo sapiens, UniProt O60674); test: JAK2 inhibition (Table 4); settings: read-out: JAK2 Ki
T4 construct: made in house; host or cells: SF9 insect cells (baculovirus)
T4 sequence (O60674 812-1132): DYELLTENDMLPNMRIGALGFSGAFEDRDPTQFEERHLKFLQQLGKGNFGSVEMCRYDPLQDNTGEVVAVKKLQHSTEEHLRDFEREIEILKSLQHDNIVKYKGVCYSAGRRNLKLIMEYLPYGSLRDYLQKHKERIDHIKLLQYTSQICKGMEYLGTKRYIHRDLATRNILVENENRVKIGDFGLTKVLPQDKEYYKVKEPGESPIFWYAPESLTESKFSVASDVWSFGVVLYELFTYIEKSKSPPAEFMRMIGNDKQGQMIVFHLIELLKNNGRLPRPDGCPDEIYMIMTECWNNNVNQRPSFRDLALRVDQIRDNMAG

T3 sequence (P52333 783-1124): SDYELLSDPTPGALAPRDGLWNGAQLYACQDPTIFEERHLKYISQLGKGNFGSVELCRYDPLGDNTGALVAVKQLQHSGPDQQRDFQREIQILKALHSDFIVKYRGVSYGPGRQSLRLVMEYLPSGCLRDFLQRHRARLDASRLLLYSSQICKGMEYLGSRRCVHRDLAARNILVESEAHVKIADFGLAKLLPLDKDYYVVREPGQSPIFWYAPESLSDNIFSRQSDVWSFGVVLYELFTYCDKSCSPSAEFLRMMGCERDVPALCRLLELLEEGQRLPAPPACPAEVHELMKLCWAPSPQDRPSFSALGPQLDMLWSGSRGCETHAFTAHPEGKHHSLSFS
T2 sequence (P23458 852-1154): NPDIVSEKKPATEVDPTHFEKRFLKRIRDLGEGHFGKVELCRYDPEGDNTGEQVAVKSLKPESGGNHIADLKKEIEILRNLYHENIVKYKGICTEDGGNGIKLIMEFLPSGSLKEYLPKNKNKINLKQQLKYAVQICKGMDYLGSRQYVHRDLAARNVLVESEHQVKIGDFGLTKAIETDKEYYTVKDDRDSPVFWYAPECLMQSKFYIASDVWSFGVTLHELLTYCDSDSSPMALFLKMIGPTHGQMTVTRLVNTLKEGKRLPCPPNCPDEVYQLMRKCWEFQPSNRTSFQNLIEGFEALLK

Structure (SMILES) | Ki (TYK2) | Ki (JAK1) | Ki (JAK3) | Ki (JAK2)
O=C(N[C@H]1CC[C@H](n2cnc3cnc4[nH]ccc4c32)CC1)OCC1CC1 [Example 140, Trans[4-(6H-1,2,3,5,6-Tetraaza-as-indacen-1-yl)-cyclohexyl]-carbamic acid cyclopropylmethyl ester] | 78.8 nM | 5.16 nM | 88.1 nM | 17.4 nM
c1cc2c(ncc3ncn(C4CCCCNC4)c32)[nH]1 (single isomer, unassigned) [Example 110, 1-Azepan-3-yl-1,6-dihydro-1,2,3,5,6-tetraaza-as-indacene] | 647 nM | 154 nM | 704 nM | 292 nM
Cc1nc2cnc3[nH]ccc3c2n1[C@@H]1CC[C@@H](NCC(F)(F)F)C1 [Example 720, [(1R,3R)-3-(2-Methyl-6H-1,3,5,6-tetraaza-as-indacen-1-yl)-cyclopentyl]-(2,2,2-trifluoro-ethyl)-amine] | 54.5 nM | 6.6 nM | 88.1 nM | 18.3 nM
OCCc1nc2cnc3[nH]ccc3c2n1[C@@H]1CCCOC1 [Example 864, (R)-2-[1-(Tetrahydro-pyran-3-yl)-1,6-dihydro-1,3,5,6-tetraaza-as-indacen-2-yl]-ethanol] | 286 nM | 71.7 nM | 305 nM | 235 nM
CC(O)c1nc2cnc3[nH]ccc3c2n1C1CC2CCC1O2 (single isomer, unassigned) [Example 936, (endo)-1-[1-(7-Oxa-bicyclo[2.2.1]hept-2-yl)-1,6-dihydro-1,3,5,6-tetraaza-as-indacen-2-yl]-ethanol] | 215 nM | 79.8 nM | 334 nM | 403 nM
O=C(CC1CC1)N1CCC[C@@H](n2cnc3cnc4[nH]ccc4c32)C1 [Example 220, 2-Cyclopropyl-1-[(R)-3-(6H-1,3,5,6-tetraaza-as-indacen-1-yl)-piperidin-1-yl]-ethanone] | 29.3 nM | 3.31 nM | 28.3 nM | 7.43 nM
C[C@@H](O)c1nc2cnc3[nH]ccc3c2n1[C@@H]1CCCOC1 [Example 456, (R)-1-[(R)-1-(Tetrahydro-pyran-3-yl)-1,6-dihydro-1,2,3,5,6-tetraaza-as-indacen-2-yl]-ethanol] | 176 nM | 70.1 nM | 346 nM | 354 nM
Cn1ncc2c1CC[C@H](n1cnc3cnc4[nH]ccc4c31)C2 [Example 954, 1-((S)-1-Methyl-4,5,6,7-tetrahydro-1H-indazol-5-yl)-1,6-dihydro-1,3,5,6-tetraaza-as-indacene] | 338 nM | 39.9 nM | 344 nM | 97.6 nM
CC1CN(Cc2cncnc2)CCC1n1cnc2cnc3[nH]ccc3c21 (racemic) [Example 343, 1-(3-Methyl-1-pyrimidin-5-ylmethyl-piperidin-4-yl)-1,6-dihydro-1,3,5,6-tetraaza-as-indacene] | 346 nM | 5.71 nM | 3.2 nM | 14 nM
CC(c1ccccc1)N1CCC(n2cnc3cnc4[nH]ccc4c32)CC1 (stereo not shown) [Example 51, 1-[1-(1-Phenyl-ethyl)-piperidin-4-yl]-1,6-dihydro-1,3,5,6-tetraaza-as-indacene] | 76.6 nM | 7.68 nM | 137 nM | 6.69 nM
CC(C)c1nccn1CCc1nc2cnc3[nH]ccc3c2n1C1CCN(CCC#N)CC1 [Example 816, 3-(4-{2-[2-(2-Isopropyl-imidazol-1-yl)-ethyl]-6H-1,3,5,6-tetraaza-as-indacen-1-yl}-piperidin-1-yl)-propionitrile] | 90.3 nM | 7.69 nM | 90.8 nM | 19.6 nM
CCC(COC)n1c(C(C)O)nc2cnc3[nH]ccc3c21 (single isomer, unassigned) [Example 182a, 1-[1-(1-Methoxymethyl-propyl)-1,6-dihydro-1,2,3,5,6-tetraaza-as-indacen-2-yl]-ethanol] | 3180 nM | 291 nM | 351 nM | 888 nM
CC(C)C(=O)NCc1nc2cnc3[nH]ccc3c2n1C1CCN(CCC#N)CC1 [Example 498, N-{1-[1-(2-Cyano-ethyl)-piperidin-4-yl]-1,6-dihydro-1,3,5,6-tetraaza-as-indacen-2-ylmethyl}-isobutyramide] | 307 nM | 21.9 nM | 60 nM | 67.7 nM
N#CCCN1CCC(n2c(CO)nc3cnc4[nH]ccc4c32)CC1 [Example 239, 3-[4-(2-Hydroxymethyl-6H-1,3,5,6-tetraaza-as-indacen-1-yl)-piperidin-1-yl]-propionitrile] | 7.39 nM | 1.53 nM | 10.4 nM | 5.1 nM
Cc1nc2cnc3[nH]ccc3c2n1C1(C)CCN(S(C)(=O)=O)CC1 [Example 580, 1-(1-Methanesulfonyl-4-methyl-piperidin-4-yl)-2-methyl-1,6-dihydro-1,2,3,5,6-tetraaza-as-indacene] | 41.3 nM | 1.45 nM | 58.5 nM | 12.8 nM
OC1CCCC(n2nnc3cnc4[nH]ccc4c32)C1 (single isomer, unassigned) [Example 553, 3-(6H-1,2,3,5,6-Pentaaza-as-indacen-1-yl)-cyclohexanol] | 33.5 nM | 8.59 nM | 42.5 nM | 20.4 nM
Cc1noc(CN2CCC(n3c([C@@H](C)O)nc4cnc5[nH]ccc5c43)CC2)n1 [Example 703, (R)-1-{1-[1-(3-Methyl-[1,2,4]oxadiazol-5-ylmethyl)-piperidin-4-yl]-1,6-dihydro-1,2,3,5,6-tetraaza-as-indacen-2-yl}-ethanol] | 182 nM | 1.97 nM | 5.01 nM | 30.1 nM
Cc1nc2cnc3[nH]ccc3c2n1C1CCN(C(=O)NCC(F)(F)F)CC1 [Example 764, 4-(2-Methyl-6H-1,3,5,6-tetraaza-as-indacen-1-yl)-piperidine-1-carboxylic acid (2,2,2-trifluoro-ethyl)-amide] | 859 nM | 88.1 nM | 609 nM | 441 nM
CN(C)C(=O)N[C@H]1CC[C@H](n2cnc3cnc4[nH]ccc4c32)CC1 [Example 603, Trans 1,1-dimethyl-3-[4-(6H-1,2,3,5,6-tetraaza-as-indacen-1-yl)-cyclohexyl]-urea] | 87 nM | 9.76 nM | 237 nM | 20.8 nM
O=C(NCCc1nc2cnc3[nH]ccc3c2n1[C@H]1CCCOC1)C1CC1 [Example 857, (S)-Cyclopropanecarboxylic acid {2-[1-(tetrahydro-pyran-3-yl)-1,6-dihydro-1,3,5,6-tetraaza-as-indacen-2-yl]-ethyl}-amide] | 364 nM | 6.23 nM | 525 nM | 213 nM
CC(C)(O)Cc1nc2cnc3[nH]ccc3c2n1C1CCN(CCC#N)CC1 [Example 346, 3-{4-[2-(2-Hydroxy-2-methyl-propyl)-6H-1,3,5,6-tetraaza-as-indacen-1-yl)-piperidin-1-yl}-propionitrile] | 140 nM | 13.9 nM | 51.8 nM | 31.5 nM
OC1CCC(n2cnc3cnc4[nH]ccc4c32)C1 (stereo not shown) [Example 708, 3-(6H-1,2,3,5,6-Tetraaza-as-indacen-1-yl)-cyclopentanol] | 77.5 nM | 11.4 nM | 79.8 nM | 38.6 nM
C[C@@H](O)c1nc2cnc3[nH]ccc3c2n1[C@H]1CCN(Cc2cnco2)C[C@H]1F [Example 704, 1-[1-(3-Fluoro-1-oxazol-5-ylmethyl-piperidin-4-yl)-1,6-dihydro-1,2,3,5,6-tetraaza-as-indacen-2-yl]-ethanol] | 138 nM | 2.45 nM | 12.8 nM | 56.7 nM
C[C@@H](O)c1nc2cnc3[nH]ccc3c2n1[C@H]1CC[C@@H](N2CCC(C#N)CC2)CC1 (relative stereo) [Example 611, Cis 1-{4-[2-(1-hydroxy-ethyl)-6H-1,2,3,5,6-tetraaza-as-indacen-1-yl]-cyclohexyl}-piperidine-4-carbonitrile] | 49.6 nM | 6.89 nM | 139 nM | 142 nM
c1cc2c(ncc3ncn(C4CCN(C5CCOCC5)CC4)c32)[nH]1 [Example 85, 1-[-(Tetrahydro-pyran-4-yl)-piperidin-4-yl]-1,6-dihydro-1,3,5,6-tetraaza-as-indacene] | 153 nM | 32.2 nM | 716 nM | 64.3 nM
CN1CCOCC1C(=O)N1CCC(n2cnc3cnc4[nH]ccc4c32)CC1 (single isomer, unassigned) [Example 197, (4-Methyl-morpholin-3-yl)-[4-(6H-1,2,3,5,6-tetraaza-as-indacen-1-yl)-piperidin-1-yl]-methanone] | 667 nM | 32.5 nM | 3240 nM | 202 nM
Cc1cc(CN2CCC(n3c([C@@H](C)O)nc4cnc5[nH]ccc5c43)CC2)n(C)n1 [Example 821, (R)-1-{1-[1-(2,5-Dimethyl-2H-pyrazol-3-ylmethyl)-piperidin-4-yl]-1,6-dihydro-1,3,5,6-tetraaza-as-indacen-2-yl}-ethanol] | 473 nM | 17.7 nM | 55.3 nM | 125 nM
c1cncc(CN[C@H]2CC[C@H](n3cnc4cnc5[nH]ccc5c43)CC2)c1 [Example 336, Pyridin-3-ylmethyl-[4-(6H-1,3,5,6-tetraaza-as-indacen-1-yl)-cyclohexyl]-amine] | 77.6 nM | 16 nM | 656 nM | 63.4 nM
